Source: article PMC12175894 (Science Advances, 2025)
Where a chain is given by its changes, count along the chain named. Entries after “also recorded” stand apart in the source; their conditions may differ.

How the values were obtained:
α2CR = α2CR (Homo sapiens, UniProt P18825); experiment: BRET Gαi1 activation
orexin OX1 = orexin OX1 (Homo sapiens, UniProt O43613); experiment: Radioligand displacement, [3H]SB674042
5-HT1AR [1] = target: T1, 5-HT1AR (Homo sapiens, UniProt P08908); experiment: PathHunter β-arrestin 2 inhibition assay, stimulated with serotonin
T1 sequence (P08908 1-422): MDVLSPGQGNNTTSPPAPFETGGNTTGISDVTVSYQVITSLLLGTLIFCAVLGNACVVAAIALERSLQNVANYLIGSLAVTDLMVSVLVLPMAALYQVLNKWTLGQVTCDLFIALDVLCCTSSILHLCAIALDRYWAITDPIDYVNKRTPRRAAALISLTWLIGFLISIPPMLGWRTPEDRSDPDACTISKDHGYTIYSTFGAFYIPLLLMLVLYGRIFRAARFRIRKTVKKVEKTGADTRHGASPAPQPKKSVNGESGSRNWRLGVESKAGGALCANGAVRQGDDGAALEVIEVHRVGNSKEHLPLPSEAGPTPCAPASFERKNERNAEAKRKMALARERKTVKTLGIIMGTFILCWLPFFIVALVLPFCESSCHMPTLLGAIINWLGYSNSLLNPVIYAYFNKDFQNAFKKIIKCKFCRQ

5-HT1ER = 5-HT1ER (Homo sapiens, UniProt P28566); experiment: BRET Gαi1 activation
5-HT1ER, sequence (P28566 whole entry): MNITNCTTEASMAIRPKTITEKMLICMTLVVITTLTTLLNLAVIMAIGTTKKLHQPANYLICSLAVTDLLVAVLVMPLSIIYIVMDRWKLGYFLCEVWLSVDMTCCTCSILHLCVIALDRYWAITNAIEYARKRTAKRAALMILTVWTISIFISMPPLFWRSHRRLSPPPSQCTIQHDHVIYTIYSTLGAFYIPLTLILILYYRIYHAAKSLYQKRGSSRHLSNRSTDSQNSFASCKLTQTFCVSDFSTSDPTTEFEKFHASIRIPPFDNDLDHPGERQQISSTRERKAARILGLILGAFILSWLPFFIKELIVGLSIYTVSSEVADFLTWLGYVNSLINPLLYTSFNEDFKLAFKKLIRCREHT

opioid µOR = opioid µOR (Homo sapiens, UniProt P35372); experiment: Radioligand displacement, [3H]diprenorphine
opioid µOR, sequence (P35372 whole entry): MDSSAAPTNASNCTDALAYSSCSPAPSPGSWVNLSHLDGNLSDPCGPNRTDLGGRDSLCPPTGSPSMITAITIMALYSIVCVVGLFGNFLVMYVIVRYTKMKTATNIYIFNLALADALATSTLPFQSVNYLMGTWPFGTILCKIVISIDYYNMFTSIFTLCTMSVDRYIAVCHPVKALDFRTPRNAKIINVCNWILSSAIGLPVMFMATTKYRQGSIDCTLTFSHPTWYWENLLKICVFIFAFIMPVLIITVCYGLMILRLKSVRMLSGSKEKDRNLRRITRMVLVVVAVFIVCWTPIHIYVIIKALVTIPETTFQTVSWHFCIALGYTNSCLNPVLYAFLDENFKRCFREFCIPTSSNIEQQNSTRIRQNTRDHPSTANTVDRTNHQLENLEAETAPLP

5-HT1AR + Gαi1 = 5-HT1AR + Gαi1 (Homo sapiens, UniProt P08908); experiment: cell-based
5-HT1AR + Gαi1, sequence (P63096 2-354 partner limits assumed, one chain of several): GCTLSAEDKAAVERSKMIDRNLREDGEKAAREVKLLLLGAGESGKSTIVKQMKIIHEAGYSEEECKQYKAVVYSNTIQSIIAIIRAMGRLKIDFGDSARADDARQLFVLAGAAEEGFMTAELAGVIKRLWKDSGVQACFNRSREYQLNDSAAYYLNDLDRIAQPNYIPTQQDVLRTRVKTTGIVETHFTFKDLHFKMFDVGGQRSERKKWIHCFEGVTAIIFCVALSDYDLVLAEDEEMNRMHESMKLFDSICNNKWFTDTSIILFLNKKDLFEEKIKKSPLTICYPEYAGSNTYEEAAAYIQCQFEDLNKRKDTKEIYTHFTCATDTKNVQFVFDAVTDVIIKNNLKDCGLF

muscarinic M3 = muscarinic M3 (Homo sapiens, UniProt P20309); experiment: Radioligand displacement, [3H]NMS
muscarinic M3, sequence (P20309 whole entry): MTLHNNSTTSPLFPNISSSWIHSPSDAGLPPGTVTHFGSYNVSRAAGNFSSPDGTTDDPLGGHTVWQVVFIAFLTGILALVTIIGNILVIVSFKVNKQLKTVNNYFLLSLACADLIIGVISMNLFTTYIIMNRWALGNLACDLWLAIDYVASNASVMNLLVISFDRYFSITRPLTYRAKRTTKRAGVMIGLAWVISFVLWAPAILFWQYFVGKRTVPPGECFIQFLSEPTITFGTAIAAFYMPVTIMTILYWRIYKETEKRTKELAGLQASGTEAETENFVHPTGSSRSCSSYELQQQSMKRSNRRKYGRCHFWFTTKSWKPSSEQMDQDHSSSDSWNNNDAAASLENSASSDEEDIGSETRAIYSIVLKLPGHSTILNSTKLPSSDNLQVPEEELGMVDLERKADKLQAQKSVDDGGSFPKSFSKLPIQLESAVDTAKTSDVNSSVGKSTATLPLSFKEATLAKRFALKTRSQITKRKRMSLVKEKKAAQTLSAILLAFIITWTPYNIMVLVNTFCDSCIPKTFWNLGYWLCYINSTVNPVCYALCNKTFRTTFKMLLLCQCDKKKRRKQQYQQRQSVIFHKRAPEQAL

α2AR = α2AR (Homo sapiens, UniProt P08913); experiment: BRET Gαi1 activation
α2AR, sequence (P08913 whole entry): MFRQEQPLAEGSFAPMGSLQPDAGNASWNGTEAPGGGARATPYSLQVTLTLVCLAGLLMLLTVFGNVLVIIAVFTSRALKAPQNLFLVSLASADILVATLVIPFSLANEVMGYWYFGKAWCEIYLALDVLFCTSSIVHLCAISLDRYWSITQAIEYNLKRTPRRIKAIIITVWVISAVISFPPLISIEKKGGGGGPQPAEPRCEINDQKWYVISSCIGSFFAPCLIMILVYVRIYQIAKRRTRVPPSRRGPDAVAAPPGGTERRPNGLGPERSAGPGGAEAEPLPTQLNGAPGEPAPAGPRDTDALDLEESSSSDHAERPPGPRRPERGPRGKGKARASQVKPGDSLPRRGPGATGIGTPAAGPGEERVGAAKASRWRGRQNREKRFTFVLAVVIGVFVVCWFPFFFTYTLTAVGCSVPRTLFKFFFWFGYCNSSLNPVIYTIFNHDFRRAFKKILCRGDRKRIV

adrenergic α2C = adrenergic α2C (Homo sapiens, UniProt P18825); experiment: Radioligand displacement, [3H]RX821002
adrenergic α2C, sequence (P18825 whole entry): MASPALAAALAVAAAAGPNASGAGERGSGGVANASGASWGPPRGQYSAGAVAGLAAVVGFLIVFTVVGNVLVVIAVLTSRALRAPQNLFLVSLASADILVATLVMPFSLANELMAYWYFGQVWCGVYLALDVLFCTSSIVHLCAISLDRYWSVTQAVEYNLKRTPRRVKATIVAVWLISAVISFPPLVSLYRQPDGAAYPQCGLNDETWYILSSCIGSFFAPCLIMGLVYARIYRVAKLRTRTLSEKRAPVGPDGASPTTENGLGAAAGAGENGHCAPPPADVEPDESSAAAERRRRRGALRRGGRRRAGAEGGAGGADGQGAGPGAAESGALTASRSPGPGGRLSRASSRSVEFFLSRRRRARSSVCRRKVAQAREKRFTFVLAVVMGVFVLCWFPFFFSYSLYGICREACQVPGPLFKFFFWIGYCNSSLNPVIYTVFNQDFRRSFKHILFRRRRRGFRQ

5-HT1AR [2] = target: T1, 5-HT1AR; experiment: High-throughput screening with radioligand displacement, single point; type: binding; set-up: host or cells: HEK293T, transient; membranes; details: compound at 10 nM
mice = experiment: Conditioned place preference; type: in vivo, mouse; details: 10 mg/kg i.p.
opioid δOR = opioid δOR (Homo sapiens, UniProt P41143); experiment: Radioligand displacement, [3H]diprenorphine
opioid δOR, sequence (P41143 whole entry): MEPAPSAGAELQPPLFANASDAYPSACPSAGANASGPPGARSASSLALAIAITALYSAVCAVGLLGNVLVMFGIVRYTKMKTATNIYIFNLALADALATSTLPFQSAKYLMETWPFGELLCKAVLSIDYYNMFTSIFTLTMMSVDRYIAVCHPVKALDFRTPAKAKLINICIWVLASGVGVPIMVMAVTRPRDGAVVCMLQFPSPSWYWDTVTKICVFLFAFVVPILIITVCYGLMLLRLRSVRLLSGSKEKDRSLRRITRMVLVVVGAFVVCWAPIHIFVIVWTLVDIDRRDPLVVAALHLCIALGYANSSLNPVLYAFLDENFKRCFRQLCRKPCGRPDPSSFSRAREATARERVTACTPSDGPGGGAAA

opioid κOR = opioid κOR (Homo sapiens, UniProt P41145); experiment: Radioligand displacement, [3H]diprenorphine
opioid κOR, sequence (P41145 whole entry): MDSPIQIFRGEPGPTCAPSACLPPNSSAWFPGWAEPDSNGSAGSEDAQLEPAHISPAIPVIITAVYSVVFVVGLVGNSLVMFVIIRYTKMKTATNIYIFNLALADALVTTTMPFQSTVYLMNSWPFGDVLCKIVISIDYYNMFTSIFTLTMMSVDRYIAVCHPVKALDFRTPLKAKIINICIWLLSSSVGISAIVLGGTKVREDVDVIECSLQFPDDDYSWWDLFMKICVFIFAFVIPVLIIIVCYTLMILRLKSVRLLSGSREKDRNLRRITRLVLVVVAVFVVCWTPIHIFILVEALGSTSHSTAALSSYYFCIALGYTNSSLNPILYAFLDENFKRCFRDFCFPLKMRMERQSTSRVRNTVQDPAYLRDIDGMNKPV

muscarinic M2 = muscarinic M2 (Homo sapiens, UniProt P08172); experiment: Radioligand displacement, [3H]NMS
muscarinic M2, sequence (P08172 whole entry): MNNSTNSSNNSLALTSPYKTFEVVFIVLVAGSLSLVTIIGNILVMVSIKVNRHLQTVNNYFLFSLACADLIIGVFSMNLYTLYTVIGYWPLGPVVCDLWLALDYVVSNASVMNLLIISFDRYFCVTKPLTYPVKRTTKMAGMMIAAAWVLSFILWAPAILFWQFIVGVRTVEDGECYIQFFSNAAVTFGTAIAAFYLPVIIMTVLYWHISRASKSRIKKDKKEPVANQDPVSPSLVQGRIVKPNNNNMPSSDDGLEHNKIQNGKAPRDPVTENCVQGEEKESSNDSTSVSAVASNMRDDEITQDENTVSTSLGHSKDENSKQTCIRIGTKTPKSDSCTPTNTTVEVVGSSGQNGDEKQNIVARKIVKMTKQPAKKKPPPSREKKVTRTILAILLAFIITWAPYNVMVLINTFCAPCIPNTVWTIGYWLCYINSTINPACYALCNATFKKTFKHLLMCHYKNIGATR

[3] = target: T2, 5-HT1AR F112^3.28W + M92^2.60F (Homo sapiens, UniProt P08908, F112W/M92F); experiment: Radioligand competition, displacement of [3H]WAY100635; type: binding; details: 5-HT1AR F112W + M92F; HEK 293T membranes; read-out: Ki [nM ± SEM]
T2 sequence (P08908 1-422 M92F/F112W): T1 sequence (P08908 1-422) with M92F, F112W

orexin OX1, sequence (O43613 whole entry): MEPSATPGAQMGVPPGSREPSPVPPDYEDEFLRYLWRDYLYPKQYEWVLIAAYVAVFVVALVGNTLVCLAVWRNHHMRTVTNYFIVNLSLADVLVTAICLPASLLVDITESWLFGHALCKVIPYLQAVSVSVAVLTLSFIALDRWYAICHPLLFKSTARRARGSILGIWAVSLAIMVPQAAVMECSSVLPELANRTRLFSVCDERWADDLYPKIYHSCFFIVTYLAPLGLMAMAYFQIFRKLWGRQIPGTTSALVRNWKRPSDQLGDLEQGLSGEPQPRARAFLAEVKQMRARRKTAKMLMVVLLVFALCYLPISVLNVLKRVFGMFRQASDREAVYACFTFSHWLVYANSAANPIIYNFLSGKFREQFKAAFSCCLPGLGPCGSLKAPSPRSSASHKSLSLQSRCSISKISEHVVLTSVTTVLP
α2CR, sequence (P18825 whole entry): as the sequence (P18825 whole entry) above

In the case of `COc1ccccc1OCCNCCCOc1ccc2c(c1)NC(=O)CO2` [ST171], the intrinsic activity (α2CR) is reported as “devoid of intrinsic activity”, the Ki (orexin OX1; Ki [nM ± SD]) is reported as over 50000 nM and the Ki (orexin OX1; pKi) is reported as over 50100 nM. The IC50 (5-HT1AR [1]) was 0.0039 ± 0.0005 µM, the Emax (5-HT1ER) was under 10% and the Ki (opioid µOR; Ki [nM ± SD], µOR) was 8600 ± 2100 nM. The Ki (opioid µOR; Ki, opioid receptor family) was over 5000 nM, the Ki (opioid µOR; pKi, µOR) was 8430 nM and the EC50 (5-HT1AR + Gαi1) was 0.0025 ± 0.0007 µM. For the same compound, the Ki (muscarinic M3; Ki [nM ± SD]) was 49000 ± 28000 nM, the Ki (muscarinic M3; pKi) was 41500 nM and the intrinsic activity (α2AR) was “devoid of intrinsic activity”. The Ki (adrenergic α2C; Ki [nM ± SD]) was 28 ± 12 nM, the Ki (adrenergic α2C; pKi) was 25.9 nM and the “displacement of the radiolabeled ligand [3H]WAY100,635” value (5-HT1AR [2]) was “more than 80%”. The “conditioned place preference (rewarding properties)” value (mice) was “rewarding; also recorded: induces CPP”, the Ki (opioid δOR; Ki [nM ± SD]) was 24000 ± 3500 nM and the Ki (opioid δOR; pKi) was 23400 nM. The Ki (opioid κOR; Ki [nM ± SD]) was 6200 ± 850 nM, the Ki (opioid κOR; pKi) was 6280 nM and the Ki (muscarinic M2; Ki [nM ± SD]) was 18000 ± 9200 nM. It also gave a Ki (muscarinic M2; pKi) of 16300 nM and a Ki [3] of 0.044 nM.
